Measurements: publication PMC11802822, “Comprehensive safety and toxicity analysis of 2,2’-Bipyridine derivatives in combating MRSA biofilm formation and persistence” (Frontiers in Cellular and Infection Microbiology, 2025)
≈ marks a conversion by molar mass, not a printed value. Where “and” joins values, the source holds several entries; their conditions need not be identical. Equal values may be shown once.

Tests used:
P. aeruginosa (MTCC1934) [1] = assay: Broth microdilution MIC; conditions: for Minimum inhibitory concentration: P. aeruginosa (MTCC1934), 18 h
E. coli (MTCC739) [2] = assay: Broth microdilution MIC; conditions: for Minimum inhibitory concentration: E. coli (MTCC739), 18 h
MTCC 737 [3] = assay: Biofilm inhibition assay (crystal violet); conditions: S. aureus; at MIC or higher concentrations
Protocol: After incubation, cells were washed with 1X PBS, and stained with 100 µl of Crystal Violet dye for 15 min, and rinsed again with 1X PBS.

E. coli (MTCC739) [4] = assay: Agar well diffusion; conditions: for Zone of inhibition: E. coli (MTCC739), 50 µg/ml, ND = Not detected
MTCC 737 [5] = assay: Transmission electron microscopy; conditions: S. aureus MTCC 737; 100 µg/ml, 12 h
M. luteus (MTCC 106) = assay: Agar well diffusion
MTCC 737 [6] = assay: Biofilm imaging by confocal laser scanning microscopy (SYTO 9/PI); conditions: derivatives 100 µg/ml, 24 h
Source text: Using SYTO 9 and PI dyes. […] Two independent experiments were done in triplicate.

MRSA 831 (MRSA) = assay: Agar well diffusion; conditions: MRSA 831, 50 µg/ml, ND = Not detected
B. subtilis (MTCC 441) = assay: Agar well diffusion; conditions: for Zone of inhibition: B. subtilis (MTCC 441), 50 µg/ml, ND = Not detected
S. aureus (MTCC737) [7] = assay: Agar well diffusion; conditions: for Zone of inhibition: S. aureus (MTCC737), 50 µg/ml, ND = Not detected
K. pneumoniae (MTCC 618) [8] = assay: Broth microdilution MIC; conditions: for Minimum inhibitory concentration: K. pneumoniae (MTCC 618), 18 h
P. aeruginosa (MTCC1934) [9] = assay: Agar well diffusion; conditions: for Zone of inhibition: P. aeruginosa (MTCC1934), 50 µg/ml, ND = Not detected
V. cholerae (MTCC 3906) [10] = assay: Agar well diffusion; assay type: cell-based, Vibrio cholerae; conditions: for Zone of inhibition: V. cholerae (MTCC 3906), 50 µg/ml, ND = Not detected
MRSA 831 [11] = assay: Broth microdilution MIC; conditions: 18 h; for Minimum inhibitory concentration: MRSA 831
MRSA 831 persister cells = assay: Persister killing assay; assay type: cell-based, methicillin-resistant S. aureus; conditions: MRSA persisters; 4-fold MIC
Protocol: To evaluate the persister-killing activity of 2,2’-Bipy derivatives, MTCC 737 and MRSA 831 cells were grown overnight to the stationary phase at 37°C ([Kim et al., 2018b]). […]. The bacterial densities of persisters were recorded at OD600 at hourly intervals from 0 to 6 h.

S. aureus (MTCC737) [12] = assay: Broth microdilution MIC; conditions: for Minimum inhibitory concentration: S. aureus (MTCC737), 18 h
MRSA 831 [13] = assay: Transmission electron microscopy; conditions: 100 µg/ml, 12 h
Cytotoxicity (MTT assay) = assay type: cell-based, murine; conditions: mouse
Protocol: The murine fibroblast 3T3 L-1 cell line was procured from the National Centre for Cell Science (NCCS), Pune, India. The 3T3 L-1 cells were incubated at 37°C in an incubator maintained at 95% humidity and 5% CO2 in DMEM medium complemented with 10% fetal bovine serum (FBS) and 1% penicillin-streptomycin.
Synthesized derivatives were evaluated for cytotoxicity in a 3T3-L1 cell line using the MTT assay ([Ernawati et al., 2022]). 8000 cells/well were added in 96-well tissue culture flat-bottom microtiter plates for 24 h and then incubated with synthesized molecules (0-400 µg/ml) for 48 h at 37°C in a CO2 incubator. DMSO was used as solvent at a concentration of 0.1% to ensure that any observed effects were not attributable to the solvent itself, whereas 1 µg/ml doxorubicin was used in toxicity tests as a positive control. Subsequently, the media was replaced with MTT solution (100 µl) diluted in fresh media (0.5 mg/ml), and incubated for 4 h. After incubation, 100 µl of stop solution (50% DMF with 20% SDS) was added to dissolve the formazan crystals, and the plates were further incubated for 1 h. Absorbance was measured at 570 nm using BioTEK Synergy multi-plate reader ([Mosmann, 1983]; [Pratelli et al., 2023]). Percent cell viability was calculated using the following formula:
Cell viability (%)=Absorbance (Untreated - blank) - Absorbance (Test sample- blank)/Absorbance (Untreated - blank)×100

V. cholerae (MTCC 3906) [14] = assay: Broth microdilution MIC; assay type: cell-based, Vibrio cholerae; conditions: for Minimum inhibitory concentration: V. cholerae (MTCC 3906), 18 h
MTCC 737 [15] = assay: PI uptake assay; assay type: cell-based, Staphylococcus aureus; conditions: derivatives 100 µg/ml, Polymyxin B 10 μM, 1 h
Protocol: (§1) MTCC 737 and MRSA 831 were grown, washed, and resuspended in 5 mM HEPES (pH 7.2), with the OD600 normalized to 0.5. […] Polymyxin B (10 μM), a membrane destabilizer, was used as a reference control. Drug-free and vehicle controls (cells treated with 0.5% DMSO) were included to analyze changes in fluorescence. After 1 h of treatment, cultures were centrifuged and stained with 5 µM PI dye for 15 min. Following staining, the cultures were washed twice to remove the extra dye, and fluorescence was recorded at 485 nm excitation and 525 nm emission wavelengths ([Zhou et al., 2020]).

MRSA 831 [16] = assay: PI uptake assay; assay type: cell-based, methicillin-resistant S. aureus; conditions: derivatives 100 µg/ml, Polymyxin B 10 μM, 1 h
Protocol: as §1

K. pneumoniae (MTCC 618) [17] = assay: Agar well diffusion; conditions: 50 µg/ml, ND = Not detected
MRSA 831 [18] = assay: Neutropenic thigh infection model in mice; conditions: neutropenic BALB/c mice, MRSA 831 10^8 CFU/ml, oral 30 mg/kg, after 2 h and 24 h, vs untreated control

## COc1ccccc1C(=NO)c1cc(C)cc(-c2cc(C)ccn2)n1 [NPS4, N-[(4,4’-dimethyl[2,2’-bipyridin]-6-yl)(2-methoxyphenyl)methylidene] hydroxylamine]
P. aeruginosa (MTCC1934) [1]; Pseudomonas aeruginosa, MTCC1934, 18 h, read-out: Minimum inhibitory concentration
  MIC: > 100 mg/L
E. coli (MTCC739) [2]; Escherichia coli, MTCC739, 18 h, read-out: Minimum inhibitory concentration
  MIC: > 100 mg/L
MTCC 737 [3]
  Biofilm formation inhibition (in words): highly effective
E. coli (MTCC739) [4]; Escherichia coli, MTCC739
  zone of inhibition at 50 µg/mL: 9 ± 1 mm
MTCC 737 [5]
  Cell morphology (TEM): Significant morphological alterations
M. luteus (MTCC 106); Micrococcus luteus, MTCC106
  zone of inhibition at 50 µg/mL: 19.3 ± 0.58 mm
MTCC 737 [6]
  Biofilm disruption (CLSM): significant disruption and damage
MRSA 831 (MRSA)
  Zone of inhibition: 14.33 ± 0.58 mm
MRSA 831 (MRSA); Staphylococcus aureus, MRSA
  zone of inhibition at 50 µg/mL: 14 mm
B. subtilis (MTCC 441); Bacillus subtilis, MTCC441
  zone of inhibition at 50 µg/mL: 10 ± 1 mm
S. aureus (MTCC737) [7]; Staphylococcus aureus, MTCC737
  zone of inhibition at 50 µg/mL: 19 mm
K. pneumoniae (MTCC 618) [8]; Klebsiella pneumoniae, MTCC618, 18 h, read-out: Minimum inhibitory concentration
  MIC: > 100 mg/L
P. aeruginosa (MTCC1934) [9]; Pseudomonas aeruginosa, MTCC1934
  zone of inhibition at 50 µg/mL: 18 ± 1 mm
V. cholerae (MTCC 3906) [10]; Vibrio cholerae, MTCC3906
  zone of inhibition at 50 µg/mL: 17.7 ± 3.21 mm
MRSA 831 [11]; Staphylococcus aureus, MRSA, read-out: Minimum inhibitory concentration
  MIC: 50 mg/L (≈ 150 µM)
MRSA 831 persister cells
  Effect on persister cell counts: significantly reduced
S. aureus (MTCC737) [12]; Staphylococcus aureus, MTCC737, 18 h, read-out: Minimum inhibitory concentration
  MIC: 50 mg/L (≈ 150 µM)
MRSA 831 [13]
  Cell morphology (TEM): Significant morphological alterations
Cytotoxicity (MTT assay)
  IC50 at 24 h: 279 mg/L
  IC50 at 48 h: 240 mg/L
V. cholerae (MTCC 3906) [14]; Vibrio cholerae, MTCC3906, 18 h, read-out: Minimum inhibitory concentration
  MIC: 12.5 mg/L (≈ 37.5 µM)

## Polymyxin B [reference compound]
MTCC 737 [15]
  PI fluorescence (membrane integrity): higher fluorescence
MRSA 831 [16]
  PI fluorescence (membrane integrity): higher fluorescence

## C=CCOc1cc(C(C)=NO)nc(-c2ccccn2)c1 [NPS1, N-[1-(4-allyloxy[2,2’-bipyridin]-6-yl)ethyldiene]hydroxylamine]
P. aeruginosa (MTCC1934) [1]
  Minimum inhibitory concentration: >100 mg/L
E. coli (MTCC739) [2]
  Minimum inhibitory concentration: >100 mg/L
K. pneumoniae (MTCC 618) [17]
  Zone of inhibition: 6.00 ± 3.46 mm
MTCC 737 [3]
  Biofilm formation inhibition (in words): highly effective
E. coli (MTCC739) [4]
  Zone of inhibition: 9.33 ± 0.58 mm
MRSA 831 (MRSA)
  Zone of inhibition: 8.67 ± 0.58 mm
B. subtilis (MTCC 441)
  Zone of inhibition: 5.33 ± 2.31 mm
S. aureus (MTCC737) [7]
  Zone of inhibition: 17.00 ± 2.65 mm
K. pneumoniae (MTCC 618) [8]
  Minimum inhibitory concentration: >100 mg/L
P. aeruginosa (MTCC1934) [9]
  Zone of inhibition: 7.67 ± 1.53 mm
MRSA 831 [18]
  Reduction in the bacterial load in thigh tissue: ~ 1.8 log10
V. cholerae (MTCC 3906) [10]
  Zone of inhibition: 15.33 ± 1.53 mm
MRSA 831 [11]
  Minimum inhibitory concentration: 50 mg/L (≈ 186 µM)
S. aureus (MTCC737) [12]
  Minimum inhibitory concentration: 50 mg/L (≈ 186 µM)
MTCC 737 [15]
  PI fluorescence (membrane integrity): exhibited fluorescence indicating membrane instability
MRSA 831 [16]
  PI fluorescence (membrane integrity): exhibited fluorescence indicating membrane instability
V. cholerae (MTCC 3906) [14]
  Minimum inhibitory concentration: 12.5 mg/L (≈ 46.4 µM)

## CCC(=NO)c1cc(OC)cc(-c2cc(OC)ccn2)n1 [NPS5, N-[1-(4,4’-dimethoxy[2,2’-bipyridin]-6-yl)propyldiene]hydroxylamine]
P. aeruginosa (MTCC1934) [1]
  Minimum inhibitory concentration: > 100 mg/L
E. coli (MTCC739) [2]
  Minimum inhibitory concentration: > 100 mg/L
K. pneumoniae (MTCC 618) [17]
  Zone of inhibition: 13.00 ± 1.00 mm
E. coli (MTCC739) [4]
  Zone of inhibition: 9.00 ± 1.00 mm
M. luteus (MTCC 106); M. luteus (MTCC 106), 50 µg/ml, ND = Not detected
  Zone of inhibition: 7.33 ± 2.89 mm
MRSA 831 (MRSA)
  Zone of inhibition: 14 mm and 14.33 ± 0.58 mm
B. subtilis (MTCC 441)
  Zone of inhibition: 4.00 ± 0.00 mm
S. aureus (MTCC737) [7]
  Zone of inhibition: 10.00 ± 1.73 mm
K. pneumoniae (MTCC 618) [8]
  Minimum inhibitory concentration: > 100 mg/L
P. aeruginosa (MTCC1934) [9]
  Zone of inhibition: 18.00 ± 1.00 mm
V. cholerae (MTCC 3906) [10]
  Zone of inhibition: 17.67 ± 3.21 mm
MRSA 831 [11]
  Minimum inhibitory concentration: 50 mg/L (≈ 174 µM)
S. aureus (MTCC737) [12]
  Minimum inhibitory concentration: 50 mg/L (≈ 174 µM)
V. cholerae (MTCC 3906) [14]
  Minimum inhibitory concentration: 50 mg/L (≈ 174 µM)
